#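 48-hour exposure; five concentrations; linearly interpolated endpoints. Definition used: TGI = concentration required for complete inhibition of growth.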
# Tested on: SF-295 CNS
# Test: DTP human tumour cell line panel, 48 h
row,Structure (SMILES),TGI [µM]
1,CCOC(=O)C1=CC(C)(C(=O)OCC)Nc2c(nc(OC)n(C)c2=O)N1 (stereo not given),> 10
2,Cc1ccc(/C=N/n2c(=O)[nH]c3ccccc3c2=O)cc1,> 100
3,S=C(c1c[nH]c2ccccc12)N1CCOCC1,> 100
4,Cc1nc2ccccc2c(=O)n1NC(=O)c1ccc(CS)cc1,> 100
5,CNc1ccc(OC)cc1S(=O)(=O)c1ccccc1[N+](=O)[O-],> 100
6,O=[N+]([O-])c1ccc(/C=N/n2c(CO)nc3ccccc32)o1,25.2

# Tested on: OVCAR-3 ovarian
# Test: DTP human tumour cell line panel, 48 h
row,Structure (SMILES),TGI [µM]
1,CC1CC(N)=Nc2ccccc2N1 (stereo not given),> 100
2,CC(=O)Nc1cc(C(=O)Nc2cc(C(=O)N3CC(CCl)c4c3cc(N)c3ccccc43)nn2C)nn1C (stereo not given),2.61
3,CC(C)(Cc1ccccc1)NC1=NCCO1,> 100
4,O=C(O)c1n[nH]nc1Cl,> 100
5,CN(c1ccc(Cl)cc1)S(=O)(=O)c1cccc([N+](=O)[O-])c1,> 100
6,NC(Cc1cccc([N+](=O)[O-])c1)C(=O)O (stereo not given),> 100
7,Clc1c(Cl)c(Cl)c2nn(C3CCCO3)nc2c1Cl (stereo not given),> 100
8,CN(c1ccc(Cl)cc1)S(=O)(=O)c1ccc([N+](=O)[O-])cc1,> 100
9,CS(=O)(=O)Nc1ccc(N2Cc3cnc4ccc5[nH]ccc2c5c34)cc1,32.2
10,CC(C)(C)C(=O)OCC1CCC[N+]2(C)CCCCC12 (stereo not given),> 100
11,CCn1c(-c2cc(OC)cc(OC)c2)nc2c1C(=O)c1ccccc1C2=O,> 100
12,CN1C(=O)N/C(=C\c2ccc(S(=O)(=O)NN)cc2)C1=O,> 100
13,Cc1cc(N(CCC#N)CCC#N)ccc1/C(N=Nc1ccc([N+](=O)[O-])cc1)=N\NC(=O)c1cc(Cl)ccc1C(=O)c1ccccc1,> 100
14,O=C1N=c2ccccc2=C1c1c(O)[nH]c2ccccc12,41.1
15,CCCCCCCCCCCCCCCCCCNc1ccn(C2OC(COP(=O)(O)OCC3OC(n4cc(C)c(=O)[nH]c4=O)CC3O)C(O)C2O)c(=O)n1 (stereo not given),39.7
16,CC(=O)OCc1cc(CCC(=O)NCCNc2c3ccccc3nc3ccccc23)cc(COC(C)=O)c1O[Si](C)(C)C(C)(C)C,5.68
17,NC(N)=NCCN=C(N)N,> 100
18,CC[N+](CC)(CCNCC(N)=O)CC(N)=O,> 10
19,COc1ccc(N=C2SC(=N/N=c3\sc4ccccc4n3C)SC2=Nc2ccc(OC)cc2)cc1,> 100
20,CCOC(=O)C1=CC(C)(C(=O)OCC)Nc2c(nc(OC)n(C)c2=O)N1 (stereo not given),> 10
21,Cc1ccc(/C=N/n2c(=O)[nH]c3ccccc3c2=O)cc1,> 100
22,S=C(c1c[nH]c2ccccc12)N1CCOCC1,> 100
23,Cc1nc2ccccc2c(=O)n1NC(=O)c1ccc(CS)cc1,30.6
24,CNc1ccc(OC)cc1S(=O)(=O)c1ccccc1[N+](=O)[O-],> 100
25,O=[N+]([O-])c1ccc(/C=N/n2c(CO)nc3ccccc32)o1,6.91

# Tested on: HT29 colon
# Test: DTP human tumour cell line panel, 48 h
row,Structure (SMILES),TGI [µM]
1,CC1CC(N)=Nc2ccccc2N1 (stereo not given),> 100
2,CC(=O)Nc1cc(C(=O)Nc2cc(C(=O)N3CC(CCl)c4c3cc(N)c3ccccc43)nn2C)nn1C (stereo not given),1.21
3,CC(C)(Cc1ccccc1)NC1=NCCO1,> 100
4,O=C(O)c1n[nH]nc1Cl,> 100
5,CN(c1ccc(Cl)cc1)S(=O)(=O)c1cccc([N+](=O)[O-])c1,> 100
6,NC(Cc1cccc([N+](=O)[O-])c1)C(=O)O (stereo not given),> 100
7,Clc1c(Cl)c(Cl)c2nn(C3CCCO3)nc2c1Cl (stereo not given),> 100
8,CN(c1ccc(Cl)cc1)S(=O)(=O)c1ccc([N+](=O)[O-])cc1,> 100
9,CS(=O)(=O)Nc1ccc(N2Cc3cnc4ccc5[nH]ccc2c5c34)cc1,95.7
10,CC(C)(C)C(=O)OCC1CCC[N+]2(C)CCCCC12 (stereo not given),> 100
11,CCn1c(-c2cc(OC)cc(OC)c2)nc2c1C(=O)c1ccccc1C2=O,> 100
12,CN1C(=O)N/C(=C\c2ccc(S(=O)(=O)NN)cc2)C1=O,> 100
13,Cc1cc(N(CCC#N)CCC#N)ccc1/C(N=Nc1ccc([N+](=O)[O-])cc1)=N\NC(=O)c1cc(Cl)ccc1C(=O)c1ccccc1,27.4
14,O=C1N=c2ccccc2=C1c1c(O)[nH]c2ccccc12,17.8
15,CCCCCCCCCCCCCCCCCCNc1ccn(C2OC(COP(=O)(O)OCC3OC(n4cc(C)c(=O)[nH]c4=O)CC3O)C(O)C2O)c(=O)n1 (stereo not given),30.4
16,CC(=O)OCc1cc(CCC(=O)NCCNc2c3ccccc3nc3ccccc23)cc(COC(C)=O)c1O[Si](C)(C)C(C)(C)C,7.38
17,NC(N)=NCCN=C(N)N,> 100
18,CC[N+](CC)(CCNCC(N)=O)CC(N)=O,> 10
19,COc1ccc(N=C2SC(=N/N=c3\sc4ccccc4n3C)SC2=Nc2ccc(OC)cc2)cc1,> 100
20,CCOC(=O)C1=CC(C)(C(=O)OCC)Nc2c(nc(OC)n(C)c2=O)N1 (stereo not given),> 10
21,Cc1ccc(/C=N/n2c(=O)[nH]c3ccccc3c2=O)cc1,> 100
22,S=C(c1c[nH]c2ccccc12)N1CCOCC1,> 100
23,Cc1nc2ccccc2c(=O)n1NC(=O)c1ccc(CS)cc1,> 100
24,CNc1ccc(OC)cc1S(=O)(=O)c1ccccc1[N+](=O)[O-],> 100
25,O=[N+]([O-])c1ccc(/C=N/n2c(CO)nc3ccccc32)o1,10.3

# Tested on: SK-OV-3 ovarian
# Test: DTP human tumour cell line panel, 48 h
row,Structure (SMILES),TGI [µM]
1,CC1CC(N)=Nc2ccccc2N1 (stereo not given),> 100
2,CC(=O)Nc1cc(C(=O)Nc2cc(C(=O)N3CC(CCl)c4c3cc(N)c3ccccc43)nn2C)nn1C (stereo not given),5.96
3,CC(C)(Cc1ccccc1)NC1=NCCO1,> 100
4,O=C(O)c1n[nH]nc1Cl,> 100
5,CN(c1ccc(Cl)cc1)S(=O)(=O)c1cccc([N+](=O)[O-])c1,> 100
6,NC(Cc1cccc([N+](=O)[O-])c1)C(=O)O (stereo not given),> 100
7,Clc1c(Cl)c(Cl)c2nn(C3CCCO3)nc2c1Cl (stereo not given),> 100
8,CN(c1ccc(Cl)cc1)S(=O)(=O)c1ccc([N+](=O)[O-])cc1,> 100
9,CC(C)(C)C(=O)OCC1CCC[N+]2(C)CCCCC12 (stereo not given),> 100
10,CCn1c(-c2cc(OC)cc(OC)c2)nc2c1C(=O)c1ccccc1C2=O,> 100
11,CN1C(=O)N/C(=C\c2ccc(S(=O)(=O)NN)cc2)C1=O,> 100
12,Cc1cc(N(CCC#N)CCC#N)ccc1/C(N=Nc1ccc([N+](=O)[O-])cc1)=N\NC(=O)c1cc(Cl)ccc1C(=O)c1ccccc1,> 100
13,O=C1N=c2ccccc2=C1c1c(O)[nH]c2ccccc12,> 100
14,CCCCCCCCCCCCCCCCCCNc1ccn(C2OC(COP(=O)(O)OCC3OC(n4cc(C)c(=O)[nH]c4=O)CC3O)C(O)C2O)c(=O)n1 (stereo not given),31.8
15,CC(=O)OCc1cc(CCC(=O)NCCNc2c3ccccc3nc3ccccc23)cc(COC(C)=O)c1O[Si](C)(C)C(C)(C)C,27.7
16,NC(N)=NCCN=C(N)N,> 100
17,CC[N+](CC)(CCNCC(N)=O)CC(N)=O,> 10
18,COc1ccc(N=C2SC(=N/N=c3\sc4ccccc4n3C)SC2=Nc2ccc(OC)cc2)cc1,> 100
19,CCOC(=O)C1=CC(C)(C(=O)OCC)Nc2c(nc(OC)n(C)c2=O)N1 (stereo not given),> 10
20,Cc1ccc(/C=N/n2c(=O)[nH]c3ccccc3c2=O)cc1,> 100
21,S=C(c1c[nH]c2ccccc12)N1CCOCC1,> 100
22,Cc1nc2ccccc2c(=O)n1NC(=O)c1ccc(CS)cc1,78
23,CNc1ccc(OC)cc1S(=O)(=O)c1ccccc1[N+](=O)[O-],> 100
24,O=[N+]([O-])c1ccc(/C=N/n2c(CO)nc3ccccc32)o1,71.9

# Tested on: SR leukemia
# Test: DTP human tumour cell line panel, 48 h
row,Structure (SMILES),TGI [µM]
1,CC(C)(Cc1ccccc1)NC1=NCCO1,> 100
2,CN(c1ccc(Cl)cc1)S(=O)(=O)c1cccc([N+](=O)[O-])c1,> 100
3,Clc1c(Cl)c(Cl)c2nn(C3CCCO3)nc2c1Cl (stereo not given),> 100
4,CC(C)(C)C(=O)OCC1CCC[N+]2(C)CCCCC12 (stereo not given),> 100
5,CCn1c(-c2cc(OC)cc(OC)c2)nc2c1C(=O)c1ccccc1C2=O,> 100
6,O=C1N=c2ccccc2=C1c1c(O)[nH]c2ccccc12,17.8
7,CCCCCCCCCCCCCCCCCCNc1ccn(C2OC(COP(=O)(O)OCC3OC(n4cc(C)c(=O)[nH]c4=O)CC3O)C(O)C2O)c(=O)n1 (stereo not given),28.2
8,CC(=O)OCc1cc(CCC(=O)NCCNc2c3ccccc3nc3ccccc23)cc(COC(C)=O)c1O[Si](C)(C)C(C)(C)C,4.91
9,COc1ccc(N=C2SC(=N/N=c3\sc4ccccc4n3C)SC2=Nc2ccc(OC)cc2)cc1,> 100
10,Cc1ccc(/C=N/n2c(=O)[nH]c3ccccc3c2=O)cc1,> 100
11,S=C(c1c[nH]c2ccccc12)N1CCOCC1,> 100
12,Cc1nc2ccccc2c(=O)n1NC(=O)c1ccc(CS)cc1,43.1
13,CNc1ccc(OC)cc1S(=O)(=O)c1ccccc1[N+](=O)[O-],> 100

# Tested on: CAKI-1 renal
# Test: DTP human tumour cell line panel, 48 h
row,Structure (SMILES),TGI [µM]
1,CC1CC(N)=Nc2ccccc2N1 (stereo not given),> 100
2,CC(=O)Nc1cc(C(=O)Nc2cc(C(=O)N3CC(CCl)c4c3cc(N)c3ccccc43)nn2C)nn1C (stereo not given),0.525
3,CC(C)(Cc1ccccc1)NC1=NCCO1,> 100
4,CN(c1ccc(Cl)cc1)S(=O)(=O)c1cccc([N+](=O)[O-])c1,> 100
5,NC(Cc1cccc([N+](=O)[O-])c1)C(=O)O (stereo not given),> 100
6,Clc1c(Cl)c(Cl)c2nn(C3CCCO3)nc2c1Cl (stereo not given),> 100
7,CN(c1ccc(Cl)cc1)S(=O)(=O)c1ccc([N+](=O)[O-])cc1,> 100
8,CS(=O)(=O)Nc1ccc(N2Cc3cnc4ccc5[nH]ccc2c5c34)cc1,> 100
9,CC(C)(C)C(=O)OCC1CCC[N+]2(C)CCCCC12 (stereo not given),> 100
10,CN1C(=O)N/C(=C\c2ccc(S(=O)(=O)NN)cc2)C1=O,> 100
11,Cc1cc(N(CCC#N)CCC#N)ccc1/C(N=Nc1ccc([N+](=O)[O-])cc1)=N\NC(=O)c1cc(Cl)ccc1C(=O)c1ccccc1,62.5
12,O=C1N=c2ccccc2=C1c1c(O)[nH]c2ccccc12,> 100
13,CCCCCCCCCCCCCCCCCCNc1ccn(C2OC(COP(=O)(O)OCC3OC(n4cc(C)c(=O)[nH]c4=O)CC3O)C(O)C2O)c(=O)n1 (stereo not given),33.2
14,NC(N)=NCCN=C(N)N,> 100
15,CC[N+](CC)(CCNCC(N)=O)CC(N)=O,> 10
16,COc1ccc(N=C2SC(=N/N=c3\sc4ccccc4n3C)SC2=Nc2ccc(OC)cc2)cc1,> 100
17,CCOC(=O)C1=CC(C)(C(=O)OCC)Nc2c(nc(OC)n(C)c2=O)N1 (stereo not given),> 10
18,Cc1ccc(/C=N/n2c(=O)[nH]c3ccccc3c2=O)cc1,> 100
19,S=C(c1c[nH]c2ccccc12)N1CCOCC1,> 100
20,O=[N+]([O-])c1ccc(/C=N/n2c(CO)nc3ccccc32)o1,24.8

# Tested on: COLO 205 colon
# Test: DTP human tumour cell line panel, 48 h
row,Structure (SMILES),TGI [µM]
1,CC1CC(N)=Nc2ccccc2N1 (stereo not given),> 100
2,CC(C)(Cc1ccccc1)NC1=NCCO1,> 100

# Reference: PubChem BioAssay (NCI)
